Experimental data: publication PMC9954107, “In Vitro and Predictive Computational Toxicology Methods for the Neurotoxic Pesticide Amitraz and Its Metabolites” (Brain Sciences, 2023)

How the values were obtained:
HepG2 cells [1] = test: MTT cytotoxicity assay; type: cell-based; details: Homo sapiens, read-out: IC50 (µM) ± SEM
Method: Human hepatocarcinoma (HepG2) (ATCC: HB-8065) cells were cultured in DMEM medium supplemented with 10% NBCS, 100 U/mL penicillin, and […] streptomycin. The incubation conditions were pH 7.4, 5% CO2 at 37 °C, and 95% air atmosphere at constant humidity. The medium was changed every 5 days. The final pesticide concentrations tested were achieved by adding each pesticide solution to the culture medium with a final MeOH or DMSO concentration ≤ 1% (v/v). Appropriate controls containing the same amounts of solvents were included in each experiment. Absence of mycoplasma was checked routinely using the MycoAlert^TM PLUS Mycoplasma Kit (Lonza, Rockland, ME, USA).
Cytotoxic effects were determined in HepG2 cells by the MTT and total protein content (PC) assays. They have been extensively used in in vitro toxicological studies for measuring cell proliferation and survival. The MTT assay determines the viability of cells by the reduction of yellow soluble tetrazolium salt (MTT), only in the metabolically active cells, via a mitochondrial-dependent reaction to an insoluble purple formazan crystal. The MTT viability assay was performed according to Ruiz et al. (2006). To begin, 2 × 10^4 cell/well were plated in 96-well tissue culture plates. After cells reached 80% confluence, the culture medium was replaced with fresh medium containing serial dilutions of each pesticide (amitraz from […], 2,4-DMF from 93.75 to 1500 µM, and 2,4-DMA from 93.75 to 1500 µM). The pesticides were exposed at 24, 48, and 72 h. During the exposure time, neither the medium nor the pesticides was replenished. After the exposure time, the medium was removed and 200 μL of fresh medium was added to each well. Then we added 50 μL/well of MTT and the plates were returned to the incubator in the darkness. After 3 h of incubation, the MTT solution was removed and 200 μL of DMSO was added, followed by 25 μL Sorensen’s glycine buffer. Plates were gently shaken for 5 min to achieve the complete dissolution. The absorbance was measured at 540 nm using an automatic ELISA plate reader (MultiSkanEX, Thermo Scientific, Waltham, MA, USA).
(§1) For MTT and PC assays, cell viability was expressed as a percentage relative to the control solvent (≤1% MeOH or DMSO). Three independent experiments were conducted for each exposure time and at least in quadruplicate per concentration. The mean inhibition concentration (IC50) values were calculated using SigmaPlot version 11 (Systat Software Inc., GmbH, Germany).

[2] = tested on: human lymphoblastoid (WIL2NS) cell line; design: method as in PMID 16125362; details: from 0.119 to 119 µM, 24, 48, and 72 h; lowest concentration 0.119 µM; cited from earlier work
HepG2 cells [3] = test: Total protein content (PC) cytotoxicity assay; type: cell-based, human; details: for IC50: Homo sapiens, read-out: IC50 (µM) ± SEM; for decrease in cell viability: 72 h
Description: The medium was changed every 5 days. The final pesticide concentrations tested were achieved by adding each pesticide solution to the culture medium with a final MeOH or DMSO concentration ≤ 1% (v/v). Appropriate controls containing the same amounts of solvents were included in each experiment. Absence of mycoplasma was checked routinely using the MycoAlert^TM PLUS Mycoplasma Kit (Lonza, Rockland, ME, USA).
The PC method is based on the increase of absorbance of Coomassie Brilliant Blue dye when binding to proteins. The assay was performed in the same 96-well plates where the MTT test was carried out. First, the plates were washed with PBS and each well received 200 μL of NaOH 0.1 N to dissolve the proteins. […] The plates remained for 30 min at room temperature and the absorbance was measured at 620 nm in an automatic ELISA plate reader (MultiSkanEX, Thermo Scientific, MA, USA).
as §1

[4] = tested on: primary hippocampal cells; details: MTT, 24 h, cited from earlier work
[5] = PC, HepG2, 24 h, mean ± SEM (n = 3)
[6] = PC, HepG2, 48 h, mean ± SEM (n = 3)
[7] = PC, HepG2, 72 h, mean ± SEM (n = 3)

| Compound | IC50 (HepG2 cells [1]; HepG2, 24 h) [µM] | IC50 (HepG2 cells [1]; HepG2, 48 h) [µM] | IC50 (HepG2 cells [1]; HepG2, 72 h) [µM] | cytotoxicity (cell viability) [2] | IC50 (HepG2 cells [3]; [5]) [µM] | IC50 (HepG2 cells [3]; [6]) [µM] | IC50 (HepG2 cells [3]; [7]) [µM] | reduction of cell viability (HepG2 cells [3]; PC, HepG2, from 187.5 μM, three times of exposure) | metabolic activity ([4]; 100 µM) | cytotoxic effect (cell viability) ([4]; from 60 to 120 µM, effect up to 100 µM) | IC50 (HepG2 cells [3]; HepG2, 24 h) [µM] | IC50 (HepG2 cells [3]; HepG2, 48 h) [µM] | IC50 (HepG2 cells [3]; HepG2, 72 h) [µM] | decrease in cell viability (HepG2 cells [3]; PC, HepG2, 1250 µM) [%] | decrease in cell viability (HepG2 cells [3]; PC, HepG2, 1500 µM) [%] | cell viability decreased to (HepG2 cells [3]; PC, HepG2, 1500 µM, 24 h) [%] |
| --- | --- | --- | --- | --- | --- | --- | --- | --- | --- | --- | --- | --- | --- | --- | --- | --- |
| Cc1ccc(/N=C/N(C)/C=N/c2ccc(C)cc2C)c(C)c1 [Amitraz, N,N’-[(methylimino)dimethylidyne]di-2,4-xylidine] | 196 ± 10.1 | 176 ± 5 | 157 ± 10.1 | significant decrease in cell viability for all concentrations tested, except for the lowest concentration assayed | 260 ± 13.3 | 213 ± 37.5 | 175 ± 2.9 | 24–100% | decrease in metabolic activity | decreased the cell viability in a concentration-dependent manner |  |  |  |  |  |  |
| Cc1ccc(NC=O)c(C)c1 [2,4-DMF, N-(2,4-dimethylphenyl) formamide] | > 1500 | > 1500 | > 1500 |  |  |  |  |  |  |  | > 1500 | > 1500 | > 1500 | 27 | 32 |  |
| Cc1ccc(N)c(C)c1 [2,4-DMA, 2,4-dimethylaniline] | > 1500 | > 1500 | > 1500 |  | > 1500 | > 1500 | > 1500 |  |  |  |  |  |  |  |  | 53 |
